Consider four compounds from patent EP0404115A1, “Bis(benzylpyrrolidine)Derivatives as dopamine agonists” (SYNTEX (U.S.A.) INC., priority 1989, dated 1990).

Like-named read-outs stand apart in the source and are kept apart here.

The conditions of series [1]: cited from earlier work.
In the next series the test system is DA₁ receptor. Nature of the series: Goldberg renal in vivo dog model (DA1 activity, intra-arterial). The following applies: for Relative Efficacy to DA₁ Standard: optimal response divided by optimal response of dopamine. The method, then: The compounds were subsequently tested following intra-arterial administration in an in situ renal and femoral arterial preparation in the dog, as developed by L.I. […] Details of the methodology are provided in the European J. […] The compound was injected directly into the renal or femoral artery for analysis of DA₁ or DA₂ activity, respectively. […] Specific DA₁ or DA₂ activity of the tested compound was verified by Sch 23390 or domperidone blockade. Adult mongrel dogs of either sex (11-20 kg) were anesthetized with pentobarbital sodium (33 mg/kg, i.v.). the animals were intubated and ventilated with room air using a Harvard respirator. The abdominal aorta was catheterized with a Millar micro-tip (size: 5F) transducer via the right femoral artery for pressure monitoring. The right femoral vein was cannulated with PE-160 tubing for iv saline infusion, as well as, supplemental pentobarbital administration. The left renal artery was isolated through a lateral abdominal incision. An electromagnetic flowprobe of the appropriate size (9-12 mm circ) was placed around the artery and connected to a Carolina Medical electromagnetic flowmeter. Surface ECG leads were placed subcutaneously on the chest and limbs to monitor heart rate. A 25 gauge 3/4" needle bent 90°, 4 mm from the tip, was placed in the renal artery proximal to the probe and connected to an infusion pump delivering saline at a constant rate of 1 ml/min. […] Blood pressure was maintained by supplemental saline (10-20 ml/kg, iv). Bradykinin, a standard for nonspecific vasodilation, was given at 0.62 nmole doses, in 0.2 ml saline, i.a., prior to generating a dose response curve for dopamine in which 4-fold increase doses, ranging from 3 to 48 nmoles, were injected i.a. in 0.2 ml of saline. Test compound was injected similarly in 4-fold increasing doses up to a maximum of 3000 nmoles. […] The optimal dose of compound was defined as that which produced a maximum increase in blood flow before causing a change in systemic blood pressure. Efficacy ratios were determined by division of the optimal response of the test compound by the optimal response of the standard agent. ED₅₀ values were derived by regression analysis from individually generated dose response curves. Potency ratios were the quotients calculated from the division of the standard agent ED₅₀ by the ED₅₀ of the test compound.

The subject of the next series is DA₂ receptor. Nature of the series: Goldberg femoral in vivo dog model (DA2 activity, intra-arterial). The method, then: The compounds were subsequently tested following intra-arterial administration in an in situ renal and femoral arterial preparation in the dog, as developed by L.I. Goldberg, to test for DA1 and DA2 dopamine activity, respectively. Details of the methodology are provided in the European J. Pharmacol., 89:137, 1983, as well as in Hypertension, 6:1-25, 1984.
The compound was injected directly into the renal or femoral artery for analysis of DA₁ or DA₂ activity, respectively. […] The compound was tested for relative activity in comparison to the standard DA₁ agonist, dopamine or the standard DA₂ agonist, DPDA. Specific DA₁ or DA₂ activity of the tested compound was verified by Sch 23390 or domperidone blockade.
Adult mongrel dogs of either sex (11-20 kg) were anesthetized with pentobarbital sodium (33 mg/kg, i.v.). the animals were intubated and ventilated with room air using a Harvard respirator. […]
The optimal dose of compound was defined as that which produced a maximum increase in blood flow before causing a change in systemic blood pressure. Efficacy ratios were determined by division of the optimal response of the test compound by the optimal response of the standard agent. […] Potency ratios were the quotients calculated from the division of the standard agent ED₅₀ by the ED₅₀ of the test compound. […]

The next series relates to Rats. Nature of the series: 7-day toxicity in rats. The settings on record: 30 and 100 mg/kg once a day for 7 days. The class given is in vivo. The method, then:
Rats were administered compound I (R₁ and R₂ = H; X = (CH₂)m; m = 6; R,R isomer) in doses of 30 and 100 mg/kg once a day for 7 days.

In series [2] the test system is spontaneously hypertensive rats. Nature of the series: Oral antihypertensive activity in conscious restrained spontaneously hypertensive rat. The class given is in vivo. The method, then: The compounds of this invention were screened for oral antihypertensive activity in the conscious restrained rat. Adult male SHR were instrumented for blood pressure and heart rate measurements under light ether anesthesia. The animals were maintained on a plexiglass restraining board following surgery, and were allowed a 1 hour recovery period prior to the oral administration of the test compounds.
Male spontaneously hypertensive rats, SHR/NVr1Br (320-410 g) were fasted overnight. The following morning the left femoral artery and vein of each rat was cannulated under light ether anesthesia. following surgery, the rats were placed on a rat restraining board and allowed to recover from the effects of the ether for 1 hour. ECG leads were placed on the animal's chest to monitor heart reate. Animals were divided into groups of 4 and dosed with the test compound (R₁ and R₂ = H; X = (CH₂)m; m = 6).
Blood pressure and heart rate readings were taken at 5 minute intervals for the first 15 minutes and every 15 minutes thereafter for a duration of 4 hour post-compound administration. Data was evaluated by two-tailed paired t-tests.

In series [3] the test system is spontaneously hypertensive rat (SHR). Nature of the series: Diuretic activity in saline-loaded spontaneously hypertensive rat. Format: in vivo. The method, then:
Additionally, these compounds were examined for diuretic activity for 6 hours following oral compound administration in the saline-loaded spontaneously hypertensive rat (SHR). Methods for this assay have been previously described (Rosenkranz, et al, Proc. West. Pharmacol. Soc. 28:87, 1985). The diuretic and natriuretic effects elicited by these compounds were characterized by an immediate onset of action.
Male spontaneously hypertensive SHR/NCr1BR rats weighing 320-430 gms were divided into four groups of seven animals. All animals were food- and water-deprived overnight. The following morning, each group of rats was hydrated with deionized water (20 ml/kg, po) forty-five minutes prior to the administration of vehicle or the test compound (R₁ and R₂ = H; X = (CH₂)n, m = 6).
Following vehicle or drug, the rats were placed in individual metabolic units. Fifteen minutes post-dose the animals were saline-loaded (30 ml/kg, po). Urine was collected at 1, 3 and 6 hour intervals post-saline-load. Urine volumes were measured and sodium and potassium levels were determined by flame photometry.
A two-way analysis of variance with time, treatment and their interaction was run as a repeated measures analysis. A secondary model of one-way analysis of variance (by time) was run using specified contrasts. The p-values for the contrasts were adjusted using Fisher's LSD strategy at each time point.

On to `Cl.NCCc1ccc(O)c(O)c1` [DOPAMINE HYDROCHLORIDE, 3,4-Dihydroxyphenethylamine Hydrochlorid], for which the Solubility result was “soluble” in series [1] (in alcohol); “practically insoluble” in series [1] (in chloroform and ether); “Freely soluble” in series [1] (in water).

On to `NCCc1ccc(O)c(O)c1` [Dopamine, 3-hydroxytyramine], for which the “Relative Efficacy to DA₁ Standard” value with DA₁ receptor was 1.00.

Turning to `CCCN(CCC)CCc1ccc(O)c(O)c1` [DPDA, di-propyl dopamine], the “ED₅₀” value with DA₂ receptor (femoral blood flow increase, injection into femoral artery, anesthetized dog) came out at 1.00 nmol. Moreover, the “Relative Efficacy to DA₂ Standard” value in the series on DA₂ receptor (optimal response divided by optimal response of DPDA) was 1.00.

In the case of `Oc1ccc(C[C@H]2CCCN2CCCCCCN2CCC[C@@H]2Cc2ccc(O)c(O)c2)cc1O` [Test Compound, R,R-1,6-bis[2-(3,4-dihydroxybenzyl)pyrrolidin-1-yl]hexane], in the series on Rats, the “treatment related changes in clinical condition, body weight, or food intake” value is on record as “No treatment related changes were noted”. In addition, in series [2] (3 mg/kg), the HR increase was determined as 6% and the “duration of HR increase” value amounted to 90 min. The HR max. response in series [2] (10 mg/kg, decrease, p<0.05) is on record as -14%. Further, the “duration of HR decrease” value in series [2] (10 mg/kg, post-compound administration) worked out at 1 h. In addition, the HR change entry in series [2] (30 mg/kg) is recorded as “did not elicit any biologically significant changes in HR”. In addition, the MBP change result in series [2] (3, 10 and 30 mg/kg) was “significant decrease in MBP”. In addition, in series [2] (across 3, 10 and 30 mg/kg), the “Peak decreases in MBP” value is on record as -17 to -22% and the “duration of action (MBP decrease)” value fell in the range of 15 to 210 min. Moreover, in the series on DA₁ receptor (ED50 of dopamine divided by ED50 of test compound), the “Relative Potency to DA₁ Standard” value stood at 11.71. In addition, in the series with DA₁ receptor, the “Relative Efficacy to DA₁ Standard” value is 1.05. Moreover, the “ED₅₀” value in the series on DA₁ receptor (renal blood flow increase, injection into renal artery, anesthetized dog, phenoxybenzamine pretreated) came out at 0.63 nmol. In addition, the “urine and sodium retention” value in series [3] (3 mg/kg, po, urine at 1 hour, sodium at 1 and 3 hours) is “significant urine and sodium retention”. In addition, in series [3] (10 mg/kg oral, one hour post administration), the diuresis and natriuresis result was “significant diuresis and natriuresis”. The diuresis and natriuresis entry in series [3] (30 mg/kg, 1, 3 and 6 hours post-dose) was “diuresis and natriuresis (p<0.05) were observed”. Besides, the kaliuresis entry in series [3] (30 mg/kg, po, 1 and 3 hour post-dose) was “significant kaliuresis”.
